# In patent US9878046B2, “Adverse side-effects associated with administration of an anti-hyaluronan agent and methods for ameliorating or preventing the side-effects” (Halozyme, Inc., priority 2010, dated 2018):
# Key:
# [1] = test system: BxPC3 pancreatic cancer cell line; assay: Antitumor activity in BxPC3 pancreatic cancer xenograft model; type: in vivo, human (xenograft in athymic female nude mice)
# Protocol: Tumor cells from the BxPC3 pancreatic cancer cell line were grown to approximately 80% confluency, trypsinized, collected, washed once in HBSS (Hank's balance salt solution, Mediatech Inc.), and re-suspended in 50% Matrigel in HBSS at 2×10^7 cells/mL on ice before inoculation into animals. Athymic female nude mice (average weight ˜20 g) were inoculated intramuscularly (IM) with 0.05 mL of cell suspension, peritibially, in the left hind leg (adjacent to the tibia periosteum). The tumors in the animals were assessed twice a week and allowed to grow to a mean tumor volume of approximately 250 mm^3 (Day −1; Table 13). Actual tumor volumes were determined using VisualSonics Vevo 770 high-resolution ultrasound.
# The animals were randomly grouped into 6 groups of 8 animals per group (6+2 satellite mice) and treated with vehicle (API buffer), PEGPH20 (157,500 Units/kg, 4.5 mg/kg), low dose dexamethasone (1.25 mg/kg), high dose dexamethasone (5 mg/kg), PEGPH20 (4.5 mg/kg)+low dose dexamethasone (1.25 mg/kg) and PEGPH20 (4.5 mg/kg)+high dose dexamethasone (5 mg/kg). The dose and frequency of the PEGPH20 (or vehicle) intravenous injections was 157,500 Units/kg or approximately 4.5 mg/kg, on Days 0, 3, 7, 10, 13 and 17 for a total of 6 injections starting on Day 0 (dose volume of 0.1 mL). The doses and frequency of the dexamethasone intraperitonal injections was 1.25 mg/kg at the low dose and 5 mg/kg at the high dose, once a day until Day 17 (QDx17) with a dose volume of 0.1 mL.
# The tumor volumes of all mice were measured pre-treatment on Days −4 and −1 (mean tumor volume of ˜250 mm^3) and on Days 4, 7, 11, 14 and 17 by capturing images using the VisualSonic ultrasound system and using an ultrasound imaging software program to calculate the tumor volume (Table 13). The percent tumor growth inhibition (% TGI) was calculated as described above in Example 9A.
# [2] = test system: PC3 prostate carcinoma cell line; assay: Antitumor activity in PC3 prostate cancer xenograft model; type: in vivo, human (xenograft in athymic male nude mice)
# Protocol: Tumor cells from the PC3 prostate carcinoma cell line were grown to approximately 80% confluency then trypsinized, collected, washed once in HBSS (Hank's balance salt solution, Mediatech Inc.), then re-suspended in 50% Matrigel® in HBSS at 2×10^7 cells/mL on ice before inoculation into animals. Athymic male nude mice (Nu/Nu (Ncr); Taconic Farms; average weight ˜20 g) were inoculated intramuscularly (IM) with 0.05 mL of this cell suspension, peritibially, in the left hind leg (adjacent to the tibia periosteum). The implants in the animals were assessed twice a week and allowed to grow to a mean tumor volume of approximately 500 mm^3 (Day −2; Table 12). Actual tumor volumes were determined using VisualSonics Vevo 770 high-resolution ultrasound, using two perpendicular axial dimensions.
# Animals were sorted randomly and grouped into 6 groups of 8 mice per group (6+2 satellite mice). Treatment groups were vehicle (API buffer), PEGPH20 (157,500 Units/kg, 4.5 mg/kg), low dose dexamethasone (1.25 mg/kg), high dose dexamethasone (5 mg/kg), PEGPH20 (4.5 mg/kg)+low dose dexamethasone (1.25 mg/kg) and PEGPH20 (4.5 mg/kg)+high dose dexamethasone (5 mg/kg). The dose and frequency of the PEGPH20 (or vehicle) intravenous injections was 157,500 Units/kg or approximately 4.5 mg/kg, every 3rd day starting on Day 0 (Days 0, 3, 6, 9, 12) with a total of 5 injections (Q3Dx5) with a dose volume of 0.1 mL. This dosing and frequency regimen was previously shown to inhibit xenograft tumor growth by 34-70%. The doses and frequency of the dexamethasone intraperitonal injections were 1.25 mg/kg at the low dose and 5 mg/kg at the high dose, once a day until Day 13 (QDx13) with a dose volume of 0.1 mL.
# The tumor volumes of all mice were measured pre-treatment on Day −2 (average tumor volume of ˜500 mm^3) and on Day 1, 6, 9, 13, 16 and 20 by capturing images using the VisualSonic ultrasound system and using an ultrasound imaging software program to calculate tumor volume (Table 12).
smiles,measurement,setting,value
C[C@@H]1C[C@H]2[C@@H]3CCC4=CC(=O)C=C[C@]4(C)[C@@]3(F)[C@@H](O)C[C@]2(C)[C@@]1(O)C(=O)CO [Dexamethasone],Tumor volume,"[1]; Day 4, PEGPH20 4.5 mg/kg IV x6 and/or dexamethasone 1.25 mg/kg IP QDx17",463.51 mm^3
same,Tumor volume,"[1]; Day 4, dexamethasone 5 mg/kg IP QDx17, alone or + PEGPH20 4.5 mg/kg IV x6",396.26 mm^3
same,Tumor volume,"[1]; Day 7, PEGPH20 4.5 mg/kg IV x6 and/or dexamethasone 1.25 mg/kg IP QDx17",609.40 mm^3
same,Tumor volume,"[1]; Day 7, dexamethasone 5 mg/kg IP QDx17, alone or + PEGPH20 4.5 mg/kg IV x6",379.39 mm^3
same,% TGI (% Tumor Growth Inhibition),"[1]; Day 7, dexamethasone 5 mg/kg alone or + PEGPH20 4.5 mg/kg",53%
same,Tumor volume,"[1]; Day 11, PEGPH20 4.5 mg/kg IV x6 and/or dexamethasone 1.25 mg/kg IP QDx17",732.92 mm^3
same,Tumor volume,"[1]; Day 11, dexamethasone 5 mg/kg IP QDx17, alone or + PEGPH20 4.5 mg/kg IV x6",481.54 mm^3
same,% TGI (% Tumor Growth Inhibition),"[1]; Day 11, dexamethasone 5 mg/kg alone or + PEGPH20 4.5 mg/kg",49%
same,Tumor volume,"[1]; Day 14, PEGPH20 4.5 mg/kg IV x6 and/or dexamethasone 1.25 mg/kg IP QDx17",796.84 mm^3
same,Tumor volume,"[1]; Day 14, dexamethasone 5 mg/kg IP QDx17, alone or + PEGPH20 4.5 mg/kg IV x6",603.82 mm^3
same,% TGI (% Tumor Growth Inhibition),"[1]; Day 14, dexamethasone 5 mg/kg alone or + PEGPH20 4.5 mg/kg",46%
same,Tumor volume,"[1]; Day 17, PEGPH20 4.5 mg/kg IV x6 and/or dexamethasone 1.25 mg/kg IP QDx17",933.86 mm^3
same,Tumor volume,"[1]; Day 17, dexamethasone 5 mg/kg IP QDx17, alone or + PEGPH20 4.5 mg/kg IV x6",720.95 mm^3
same,% TGI (% Tumor Growth Inhibition),"[1]; Day 17, dexamethasone 5 mg/kg alone or + PEGPH20 4.5 mg/kg",50%
same,Tumor volume,"[1]; Day −1 (pre-treatment), PEGPH20 4.5 mg/kg IV x6 and/or dexamethasone 1.25 mg/kg IP QDx17",312.65 mm^3
same,Tumor volume,"[1]; Day −1 (pre-treatment), dexamethasone 5 mg/kg IP QDx17, alone or + PEGPH20 4.5 mg/kg IV x6",231.18 mm^3
same,Tumor volume,"[1]; Day −4 (pre-treatment), PEGPH20 4.5 mg/kg IV x6 and/or dexamethasone 1.25 mg/kg IP QDx17",202.85 mm^3
same,Tumor volume,"[1]; Day −4 (pre-treatment), dexamethasone 5 mg/kg IP QDx17, alone or + PEGPH20 4.5 mg/kg IV x6",197.29 mm^3
same,Tumor volume,"[2]; Day 1, PEGPH20 4.5 mg/kg IV Q3Dx5 and/or dexamethasone 1.25 mg/kg IP QDx13",636.98 mm^3
same,Tumor volume,"[2]; Day 1, dexamethasone 5 mg/kg IP QDx13, alone or + PEGPH20 4.5 mg/kg IV Q3Dx5",633.84 mm^3
same,Tumor volume,"[2]; Day 6, PEGPH20 4.5 mg/kg IV Q3Dx5 and/or dexamethasone 1.25 mg/kg IP QDx13",727.80 mm^3
same,Tumor volume,"[2]; Day 6, dexamethasone 5 mg/kg IP QDx13, alone or + PEGPH20 4.5 mg/kg IV Q3Dx5",854.90 mm^3
same,Tumor volume,"[2]; Day 9, PEGPH20 4.5 mg/kg IV Q3Dx5 and/or dexamethasone 1.25 mg/kg IP QDx13",964.35 mm^3
same,Tumor volume,"[2]; Day 9, dexamethasone 5 mg/kg IP QDx13, alone or + PEGPH20 4.5 mg/kg IV Q3Dx5",995.47 mm^3
same,Tumor volume,"[2]; Day 13, PEGPH20 4.5 mg/kg IV Q3Dx5 and/or dexamethasone 1.25 mg/kg IP QDx13",1202.35 mm^3
same,Tumor volume,"[2]; Day 13, dexamethasone 5 mg/kg IP QDx13, alone or + PEGPH20 4.5 mg/kg IV Q3Dx5",1211.50 mm^3
same,Tumor volume,"[2]; Day 16, PEGPH20 4.5 mg/kg IV Q3Dx5 and/or dexamethasone 1.25 mg/kg IP QDx13",1401.91 mm^3
same,Tumor volume,"[2]; Day 16, dexamethasone 5 mg/kg IP QDx13, alone or + PEGPH20 4.5 mg/kg IV Q3Dx5",1455.27 mm^3
same,Tumor volume,"[2]; Day 20, PEGPH20 4.5 mg/kg IV Q3Dx5 and/or dexamethasone 1.25 mg/kg IP QDx13",1792.92 mm^3
same,Tumor volume,"[2]; Day 20, dexamethasone 5 mg/kg IP QDx13, alone or + PEGPH20 4.5 mg/kg IV Q3Dx5",1840.11 mm^3
same,Tumor volume,"[2]; Day −2 (pre-treatment), PEGPH20 4.5 mg/kg IV Q3Dx5 and/or dexamethasone 1.25 mg/kg IP QDx13",486.88 mm^3
same,Tumor volume,"[2]; Day −2 (pre-treatment), dexamethasone 5 mg/kg IP QDx13, alone or + PEGPH20 4.5 mg/kg IV Q3Dx5",516.25 mm^3
